Holding throughout (experiment): growth of human tumour cells (NCI), 48 h
The test system of assay [1] is SK-MEL-5 melanoma.
Assay [2] relates to BT-549 breast.
Assay [3] relates to UO-31 renal.
Assay [4] relates to KM12 colon.
In assay [5] the test system is PC-3 prostate.
The subject of assay [6] is HS 578T breast.
Assay [7] has as its system MDA-MB-231 breast.
Assay [8] relates to UACC-257 melanoma.
The subject of assay [9] is HCT-116 colon.
Assay [10] has as its system ACHN renal.
For assay [11], the system named is A498 renal.
The subject of assay [12] is A549 NSCLC.
Assay [13] has as its system M14 melanoma.
Assay [14] deals with SK-OV-3 ovarian.
Assay [15] concerns EKVX NSCLC.
In assay [16] the test system is OVCAR-4 ovarian.
The subject of assay [17] is OVCAR-8 ovarian.
Assay [18] concerns DU-145 prostate.
The test system of assay [19] is RPMI-8226 leukemia.
Assay [20] relates to RXF 393 renal.

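Five compound concentrations were applied to cells in 96-well plates for 48 hours; endpoints were derived by simple linear interpolation of the resulting dose-response curve. TGI is the concentration that stops growth completely.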

Regarding `Cc1sc(N)c(S(=O)(=O)c2ccccc2)c1C`, the TGI in assay [1], in assay [2], in assay [3], in assay [4], in assay [5] and in assay [6] was above 100 µM each time. Also, the TGI in assay [7], in [8], in assay [9], in [10], in assay [11] and in assay [12] was above 100 µM throughout. In addition, the TGI in assay [13], in [14], in assay [15], in [16], in [17] and in [18] was above 100 µM throughout. Further, the TGI in assay [19] and in assay [20] was above 100 µM each time.
Consider `CN(C)CC1(Cc2ccccc2)CCC(Cc2ccccc2)C1=O` (stereo not given), for which the TGI in assay [1] is 27.4 µM; in assay [2] it was 25.5 µM; in assay [3], 30.7 µM; in assay [4], 20.9 µM; in assay [5], 22.9 µM; in [6], 48.9 µM. The TGI is 24.3 µM in assay [7]; 29.1 µM in assay [8]; 26.7 µM in [9]; 29.7 µM in [10]; 29.8 µM in [11]; 33.5 µM in [12]. Also, the TGI in assay [13] was found to be 23.9 µM; in assay [14] it was 36.4 µM; in assay [15], 31.8 µM; in assay [16], 31 µM; in assay [17] it was 18.2 µM; in assay [18], 28.7 µM. Moreover, the values for the TGI in [19] and in assay [20] were 6.84 µM and 27.5 µM, respectively.
As for `O=C1/C(=C/c2ccccc2)CCc2ccccc21`, the TGI came to 32.3 µM in assay [1]; 29.7 µM in assay [2]; 27.8 µM in assay [3]; 33.8 µM in assay [4]; 38.6 µM in assay [5]; 72.4 µM in assay [6]. For the same compound, the TGI in [7] amounted to 87.7 µM; in assay [8] it was 31.4 µM; in [9], 33.5 µM; in assay [10], 32.4 µM; in assay [11], 34.5 µM; in assay [12], 57.4 µM. For the same compound, the TGI in assay [13] worked out at 37.4 µM; in assay [14] it was 67.5 µM; in assay [15] it was 33.7 µM; in assay [16], 28 µM; in [17], 65.5 µM; in [18] it was 37 µM. The TGI worked out at 9.42 µM in assay [19] and 29.7 µM in assay [20].
On to `Cn1c2ccccc2n2c3ccccc3c(=O)c(C#N)c12`, for which the TGI was 28.4 µM in assay [1]; above 100 µM in assay [2]; above 71.2 µM in [3]; above 100 µM in assay [4]; above 100 µM in assay [5]; 66.7 µM in [6]. The TGI is 41.9 µM in assay [7]; above 100 µM in [8]; 33.9 µM in assay [9]; 13.6 µM in assay [10]; above 75.8 µM in [11]; above 100 µM in [12]. In addition, the TGI in assay [13] is above 100 µM; in [14] it was above 100 µM; in [15] it was above 100 µM; in assay [16] it was above 100 µM; in assay [17] it was above 44.5 µM; in [18], 65.8 µM. Further, the values for the TGI in assay [19] and in assay [20] were above 26.7 µM and above 100 µM, respectively.
With `COc1ccc(CCNC(=O)CCc2ccccc2CO)cc1OC`, the TGI in assay [1], in assay [2], in [3], in assay [4], in assay [5] and in assay [6] was above 100 µM throughout. In addition, the TGI in [7], in assay [8], in assay [9], in assay [10], in assay [11] and in [12] was above 100 µM in each case. Also, the TGI in assay [13], in [14], in assay [15], in assay [16], in assay [17] and in assay [18] was above 100 µM each time. Moreover, the TGI in [19] and in assay [20] was above 100 µM each time.
Consider `Cc1ccc(CC(Cc2ccc(C)cc2C(=O)O)C(=O)O)cc1` (stereo not given), for which the TGI in assay [1], in [2], in [3], in [4], in assay [5] and in assay [6] was above 100 µM each time. Further, the TGI in assay [7], in [8], in [9], in assay [10], in assay [11] and in assay [12] was above 100 µM each time. The TGI in [13], in [14], in assay [15], in assay [16], in assay [17] and in assay [18] was above 100 µM throughout. Also, the TGI in assay [19] and in [20] was above 100 µM in each case.
Turning to `C[N+](C)(C)CC(=O)N/N=C(/CC1OC(=O)c2ccccc21)c1ccccc1O` (stereo not given), the TGI was above 100 µM in assay [1]; 95.7 µM in assay [2]; 56.1 µM in [3]; above 100 µM in [4]; above 100 µM in [5]; above 100 µM in assay [6]. Also, the TGI in assay [7] was above 100 µM; in assay [8] it was 78.9 µM; in assay [9] it was above 100 µM; in [10], 66.4 µM; in assay [11], 77.1 µM; in [12], above 100 µM. For the same compound, the TGI in assay [13] is above 100 µM; in [14] it was above 100 µM; in assay [15], above 100 µM; in assay [16], above 100 µM; in assay [17], 82 µM; in [18] it was above 100 µM. Also, the figures for the TGI in assay [19] and in assay [20] were 22.1 µM and 86.4 µM, respectively.

The values are drawn from PubChem BioAssay (NCI).
